# Assays:
# Experiment in all cases: relative viability (nuclei count vs DMSO), 5 days (fraction); higher = more cells survive
# NCI-H1734 = system: NCI-H1734
# Procedure, shortened: (§1)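 Cells from lung cancer lines were seeded into 1536-well plates and, one day later, dosed by pin tool. Treatments were either a single drug or a fixed dose of an anchor drug with five library-drug doses (not always all listed) in √10 steps. After 5 days, nuclei were stained in a one-step fixation (final 0.05% Triton X-100, 1% formaldehyde, 1 ug/ml Hoechst) and counted on 4× images, and relative viability is the treated-to-vehicle nuclei ratio, as the median of duplicate plates.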
# NCI-H1792 = system: NCI-H1792
# Procedure, shortened: as §1
# NCI-H2009 = system: NCI-H2009
# Procedure, shortened: as §1
# NCI-H2087 = system: NCI-H2087
# Procedure, shortened: as §1
# NCI-H2170 = system: NCI-H2170
# Procedure, shortened: as §1
# NCI-H2342 = system: NCI-H2342
# Procedure, shortened: as §1
# NCI-H2405 = system: NCI-H2405
# Procedure, shortened: as §1
# NCI-H596 = system: NCI-H596
# Procedure, shortened: as §1
# NCI-H647 = system: NCI-H647
# Procedure, shortened: as §1
# NCI-H661 = system: NCI-H661
# Procedure, shortened: as §1
# SK-LU-1 = system: SK-LU-1
# Procedure, shortened: as §1
# SK-MES-1 = system: SK-MES-1
# Procedure, shortened: as §1
smiles,measurement,setting,value
Clc1ccc(Nc2nnc(Cc3ccncc3)c3ccccc23)cc1 [Vatalanib] + Nc1ncn([C@H]2C[C@H](O)[C@@H](CO)O2)c(=O)n1 [Decitabine] (partner 2 µM),relative viability,NCI-H1734; first compound 1.265 µM,0.477
same,relative viability,NCI-H1734; first compound 4 µM,0.518
same,relative viability,NCI-H1792; first compound 0.04 µM,0.614
same,relative viability,NCI-H1792; first compound 0.1265 µM,0.465
same,relative viability,NCI-H1792; first compound 0.4 µM,0.608
same,relative viability,NCI-H1792; first compound 1.265 µM,0.515
same,relative viability,NCI-H1792; first compound 4 µM,0.55
same,relative viability,NCI-H2009; first compound 0.04 µM,0.378
same,relative viability,NCI-H2009; first compound 0.1265 µM,0.334
same,relative viability,NCI-H2009; first compound 0.4 µM,0.343
same,relative viability,NCI-H2009; first compound 1.265 µM,0.404
same,relative viability,NCI-H2009; first compound 4 µM,0.396
same,relative viability,NCI-H2087; first compound 0.04 µM,0.286
same,relative viability,NCI-H2087; first compound 0.1265 µM,0.292
same,relative viability,NCI-H2087; first compound 0.4 µM,0.273
same,relative viability,NCI-H2087; first compound 1.265 µM,0.298
same,relative viability,NCI-H2087; first compound 4 µM,0.275
same,relative viability,NCI-H2170; first compound 0.04 µM,0.479
same,relative viability,NCI-H2170; first compound 0.1265 µM,0.474
same,relative viability,NCI-H2170; first compound 0.4 µM,0.488
same,relative viability,NCI-H2170; first compound 1.265 µM,0.469
same,relative viability,NCI-H2170; first compound 4 µM,0.487
same,relative viability,NCI-H2342; first compound 0.04 µM,0.611
same,relative viability,NCI-H2342; first compound 0.1265 µM,0.781
same,relative viability,NCI-H2342; first compound 0.4 µM,0.718
same,relative viability,NCI-H2342; first compound 1.265 µM,0.736
same,relative viability,NCI-H2342; first compound 4 µM,0.641
same,relative viability,NCI-H2405; first compound 0.04 µM,0.725
same,relative viability,NCI-H2405; first compound 0.1265 µM,0.744
same,relative viability,NCI-H2405; first compound 0.4 µM,0.866
same,relative viability,NCI-H2405; first compound 4 µM,0.732
same,relative viability,NCI-H596; first compound 0.04 µM,0.921
same,relative viability,NCI-H596; first compound 0.1265 µM,1.14
same,relative viability,NCI-H596; first compound 0.4 µM,1.22
same,relative viability,NCI-H596; first compound 1.265 µM,1.01
same,relative viability,NCI-H596; first compound 4 µM,1.02
same,relative viability,NCI-H647; first compound 0.04 µM,0.4
same,relative viability,NCI-H647; first compound 0.1265 µM,0.375
same,relative viability,NCI-H647; first compound 0.4 µM,0.562
same,relative viability,NCI-H647; first compound 1.265 µM,0.36
same,relative viability,NCI-H647; first compound 4 µM,0.375
same,relative viability,NCI-H661; first compound 0.04 µM,0.584
same,relative viability,NCI-H661; first compound 0.1265 µM,0.512
same,relative viability,NCI-H661; first compound 0.4 µM,0.544
same,relative viability,NCI-H661; first compound 1.265 µM,0.597
same,relative viability,NCI-H661; first compound 4 µM,0.524
same,relative viability,SK-LU-1; first compound 0.04 µM,0.614
same,relative viability,SK-LU-1; first compound 0.1265 µM,0.584
same,relative viability,SK-LU-1; first compound 0.4 µM,0.668
same,relative viability,SK-LU-1; first compound 1.265 µM,0.668
same,relative viability,SK-LU-1; first compound 4 µM,0.52
same,relative viability,SK-MES-1; first compound 0.04 µM,0.358
same,relative viability,SK-MES-1; first compound 0.1265 µM,0.342
same,relative viability,SK-MES-1; first compound 0.4 µM,0.415
same,relative viability,SK-MES-1; first compound 1.265 µM,0.287
same,relative viability,SK-MES-1; first compound 4 µM,0.353

# From the supplement of paper PMC10307832
